Measured values as given in US12281058B2, “Manganese catalysts and their use in hydrogenation of ketones” (priority 2019, dated 2025).
Where two headings read alike, the source gives them in different places.

Columns and labels:
[1] = Ketone hydrogenation, general procedure (vial); conditions: 2′,6′-dichloro-3′-fluoroacetophenone, 0.1 mol % catalyst, 50 °C, 16 h
[2] = Ketone hydrogenation, general procedure (vial); conditions: 4′-chloropropiophenone, 0.1 mol % catalyst, 50 °C, 16 h
[3] = Ketone hydrogenation, general procedure (vial); conditions: propiophenone; 0.001 equiv. catalyst, 50 °C, 16 h, 50 bar H2, K2CO3, ethanol; chiral HPLC, (S)
[4] = Ketone hydrogenation, general procedure (vial); conditions: 4′-methoxypropiophenone, 0.001 equiv. catalyst, 50 °C, 16 h
[5] = Ketone hydrogenation, general procedure (vial); conditions: isobutyrophenone; 0.001 equiv. catalyst, 50 °C, 16 h, 50 bar H2; chiral HPLC, (S)
[6] = Hydrogenation of acetophenone, microwave vials in autoclave (vial method); conditions: for e.e.: 50 bar H2, chiral HPLC, (S)
[7] = Ketone hydrogenation, general procedure (vial); conditions: 2′-fluoroacetophenone; 0.1 mol % catalyst, 50 °C, 16 h, 50 bar H2, K2CO3, ethanol
[8] = Ketone hydrogenation, general procedure (vial); conditions: 2′-chloroacetophenone; 0.1 mol % catalyst, 50 °C, 16 h, 50 bar H2, K2CO3, ethanol
[9] = Ketone hydrogenation, general procedure (vial); conditions: 2′-methoxyacetophenone; 0.1 mol % catalyst, 50 °C, 16 h, 50 bar H2, K2CO3, ethanol
[10] = Ketone hydrogenation, general procedure (vial); conditions: cyclohexylphenylketone; 0.1 mol % catalyst, 50 °C, 16 h, 50 bar H2, K2CO3, ethanol
[11] = for Conversion (%) / TOF: acetophenone, gas uptake, 20 bar H2, 50 °C; for TOF: at 20% conversion
Procedure: The vessel was sealed and pressurised with hydrogen gas (5 bar) and vented. This was repeated twice. The degassed ethanol solution was added via an injection port and the vessel sealed and pressurised with hydrogen gas (20 bar) and vented. This was repeated twice. The pressure was set to 2 bar and the mixture heated to 50° C. at which time the pressure was increased to 20 bar and the experiment started. Gas uptake was monitored by reduction of the pressure in the burette. […] The vessel was cooled to room temperature, vented and the content concentrated to dryness and analysed by ^1H-NMR to confirm full conversion. The uptake curve was converted to conversion by dividing the gas uptake at a time-point by total uptake and multiplied by 100 to get percentage conversion. Substrate and product concentrations could be calculated, from which the turnover frequency (TOF) could be calculated. The TOF was reported at 20% conversion to minimise temperature influence of the vessel setup.

Question: Which e.e. ([1]; 50 bar H2, chiral HPLC, (S)) does the source give for “[(Rc,Sp)—N-2-picolynyl-1-(-2-bis(4-methoxy-3,5-dimethylphenyl)-phosphino)ferrocenylethylamine]-κN^1-κN^2-κ^P-tricarbonyl manganese (I) bromide [compound 2]” here?
Answer: 82%

Question: And the e.e. ([2]; 50 bar H2, chiral HPLC, (S))?
Answer: 80%

Question: And the ee [3]?
Answer: 76%

Question: What about the “conversion to product (NMR analysis)” value ([4]; 50 bar H2, K2CO3, ethanol) of the same substance?
Answer: 96%

Question: And the ee ([4]; 50 bar H2, chiral HPLC, (S))?
Answer: 70%

Question: What about the ee [5] of the same substance?
Answer: 90%

Question: Which results are given for “[(Rc,Sp)—N-(4-(dimethylamino)pyridine-2-methyl)-1-(˜2-bis(4-methoxy-3,5-dimethylphenyl)phosphino)ferrocenylethylamine]-κN^1-κN^2-κ^P-tricarbonyl manganese (I) bromide [compound 6]”?
Answer: Conversion ([6]; 0.01 mol % catalyst, 65 °C, 24 h, 50 bar H2): >99%; e.e. ([6]; 0.01 mol % catalyst, 65 °C, 24 h): 57% (S); Conversion ([6]; 0.02 mol % catalyst, 60 °C, 16 h, 50 bar H2): >99%; e.e. ([6]; 0.02 mol % catalyst, 60 °C, 16 h): 51% (S); Conversion ([6]; 0.1 mol % catalyst, 50 °C, 16 h, 50 bar H2, K2CO3, ethanol): >99%; Conversion (%) ([6]; vial method, 0.1 mol % catalyst, 2 h, 50 bar H2): 56.5%; TOF ([6]; vial method, 0.1 mol % catalyst, calculated after 2 h, 50 bar H2): 283 h⁻¹; Conversion [7]: >99%; Conversion [8]: >99%; Conversion [9]: >99%; Conversion ([1]; 50 bar H2, K2CO3, ethanol): >99%; Conversion ([2]; 50 bar H2, K2CO3, ethanol): >99%; Conversion [10]: >99%; Conversion (%) ([11]; 0.05 mol % catalyst, 12 h): 100%; TOF ([11]; 0.05 mol % catalyst): 237 h⁻¹; Conversion (%) ([11]; 0.1 mol % catalyst, ethanol, run to completion): 100%; TOF ([11]; 0.1 mol % catalyst): 230 h⁻¹; turnover frequency (TOF) with 6 relative to 7 ([11]; hydrogenation of acetophenone, Table 2): at least 3.5 times
